{"source": "patent US20160257997A1", "about": "“METHODS FOR WHOLE-CELL ANALYSIS OF GRAM-POSITIVE BACTERIA” (AdvanDx, Inc., priority 2009, published 2016)", "key": {"[1]": {"test_system": "MecA", "test": "PNA FISH with tyramide signal amplification (Example 4)", "type": "cell-based, S. aureus", "settings": "MRSA 33591, oxacillin-induced; 500 nM total; streptavidin-HRP, AlexaFluor 594-labeled tyramide; FIG. 4", "protocol": "Cell fixation and permeabilization was also performed as described in Example 1 except that prior to hybridization the slides were treated at 80° C. for 5 minutes with 75 μL of TE buffer (Tris-HCl 100 mM, EDTA, 10 mM, pH 8.0). For hybridization, 25 μL of HB** containing five biotin-labeled PNA probes (Probes 11, 12, 13, 14 and 15 (concentration of each probe was 100 nM for a total concentration of 500 nM) was applied on one slide. Another slide was probed with one biotin-labeled, C. albicans—specific rRNA-directed probe (probe 10, concentration 500 nM) in control experiment. Hybridization and washing were performed as described in Example 1. Slides were then processed with reagents commercially available from Molecular Probes (TSA Kit #25, Eugene, Oreg.) according to manufacturer's protocol. Specifically, slide-deposited cells were first incubated 30 min with 0.075 mL of Blocking Buffer (BB) then 30 min with 0.1 mL of streptavidin-HRP diluted in BB. After washing (3×5 min wash) with PBS-Tween, the cells were incubated 10 min with 0.075 mL of AlexaFluor 594-labeled tyramide solution and washed (3×5 min wash) again. A drop of MM and cover slip was then applied on air dried slides and the cells were examined by FM. […]"}, "[2]": {"test_system": "rRNA", "test": "PNA FISH with rRNA-directed probes on S. epidermidis cells (Example 3)", "settings": "MRSE 51625 in mixture with MRSA 43300", "quoted_text": "In this example a mixture of MRSA 43300 and MRSE 51625 was prepared and examined using three fluorescent filters as described below. The growth and oxacillin induction of S. aureus cells was performed as described in Example 1. […] S. epidermidis was grown essentially as described for S. aureus in Example 1. Cell fixation and permeabilization of both MRSA 43300 and MRSE 51625 was performed as described in Example 1.\nThe remainder of the procedure was performed as described in Example 1. These images are of the same section of the slide. In each case, only the fluorescence filter was changed."}, "[3]": {"test_system": "rRNA", "test": "PNA FISH with rRNA-directed probes on S. aureus cells (Examples 2-3)", "type": "cell-based", "from_the_text": "Some (but not all) of the visible colonies in the slides are surrounded by a circle (slide A) or a square (Slide B). This should assist in analysis of the slides where black and white copies of the Figures are provided in lieu of color copies. In Image A-1 and A-2, the same colonies are encircled to simplify the comparison. The conditions for each of the slides examined in FIG. 2, are as follows: • A-1) MRSA 43300, Dual band filter • B-1) MSSA 29213, Dual band filter • A-2) MRSA 43300, FITC filter • B-2) MSSA 29213, FITC filter"}, "[4]": {"test_system": "MecA mRNA", "test": "PNA FISH of MecA mRNA in permeabilized S. aureus (Examples 1-3)", "type": "cell-based", "settings": "MRSA 43300, oxacillin-induced; FIG. 1 Slides B-D; Probes 1-5 794 nM combined, Probe 2 750 nM, Probe 6 750 nM"}}, "note": "{Biotin} = biotin label at the PNA N-terminus, attached through the O linker (8-amino-3,6-dioxaoctanoic acid); {PacBlue} = Pacific Blue dye label at the PNA N-terminus, attached through the O linker; {TAMRA} = TAMRA (TAM) fluorescent label at the PNA N-terminus"}
{"substance": "AGAGAGCAGCATCCA (all peptide nucleic acid (PNA), 5' {Biotin}; peptide nucleic acid FISH probe, chemically synthesized) [Probe 10, Biotin-labeled C. albicans-specific rRNA-directed PNA probe, control]", "values": [{"measurement": "fluorescent staining of bacteria after tyramide signal amplification", "setting": "[1]", "result": "absence of visible bacteria"}]}
{"substance": "TAM-GCTTCTCGTCCGTTC (all peptide nucleic acid (PNA), 5' {TAMRA}; peptide nucleic acid FISH probe; listed as Staphylococcus aureus) [Probe 8, TAMRA-labeled S. aureus-specific rRNA-directed PNA probe]", "values": [{"measurement": "fluorescent staining of bacteria (dual band filter)", "setting": "[2]; FIG. 3 Image A", "result": "no TAMRA signal"}, {"measurement": "fluorescent staining of bacteria (dual band filter)", "setting": "[3]; MRSA 43300 and MSSA 29213, 500 nM, FIG. 2 Slides A-1 and B-1", "result": "Red fluorescent stained bacteria"}, {"measurement": "fluorescent staining of bacteria (dual band filter)", "setting": "[3]; MRSA 43300 in mixture with MRSE 51625, FIG. 3 Image A", "result": "red fluorescence"}]}
{"substance": "TCAATGAGCAAAGGT (all peptide nucleic acid (PNA); fluorescein label, position not given here; listed as Escherichia coli) [Probe 6, Flu-labeled E. coli specific rRNA-directed PNA probe, control]", "values": [{"measurement": "fluorescent staining of bacteria (FITC filter)", "setting": "[4]", "result": "No signal was observed"}]}
{"substance": "TCCTCGTCTGTTCGC (all peptide nucleic acid (PNA), 5' {PacBlue}; peptide nucleic acid FISH probe, chemically synthesized; listed as Staphylococcus epidermidis) [Probe 9]", "values": [{"measurement": "fluorescent staining of bacteria (DAPI filter)", "setting": "[2]; 500 nM, FIG. 3 Image B", "result": "Blue stained MRSE bacteria are visible"}]}
